Experimental data as given in US9790235B2, “MK2 inhibitors and uses thereof” (Celgene CAR LLC, priority 2014, dated 2017).
pIC50: −log10 of the molar value. Like-named read-outs stand apart in the source and are kept apart here.

Assays:
MK2 = MK2 (Homo sapiens (Human), UniProt P49137)
Method: Aliquots of the resulting mixture (6 μL each) were diluted with 0.2% trifluoroacetic acid (TFA, 10 μL) prior to micro C4 ZipTipping directly onto the MALDI target using sinapinic acid as the desorption matrix (10 mg/ml in 0.1% TFA:acetonitrile 50:50, v/v). The centroid mass of the target protein in the control sample was compared with the centroid mass of the target protein incubated with compound. A shift in the centroid mass of the treated protein compared to the untreated protein was divided by the molecular weight of the compound. This number corresponds to the percentage of modified protein (a measure of the proportion of total target protein covalently bound to the test compound) after one hour incubation.
3 μL of magnetic Ni-NTA beads were added to the 6 μL aliquots of sample, washed, eluted with 0.2% trifluoroacetic acid (TFA, 2 μL), and spotted directly onto the MALDI target using sinapinic acid as the desorption matrix (10 mg/ml in 0.1% TFA:acetonitrile 50:50, v/v). The centroid mass of the target protein in the control sample was compared with the centroid mass of the target protein incubated with compound. A shift in the centroid mass of the treated protein compared to the untreated protein was divided by the molecular weight of the compound. This number corresponds to the percentage of modified protein (a measure of the proportion of total target protein covalently bound to the test compound) after one hour incubation.

[1] = molecular target: p38α activated, mitogen-activated protein kinase-activated protein kinase 2 (MAPKAP-K2 or MK2) enzyme (Homo sapiens (Human), UniProt P49137); assay: MK2 Omnia continuous-read kinase assay for compound potency; format: biochemical; conditions: [MK-2]=0.4 nM, [ATP]=10 μM, [ST3-Sox]=10 μM; read-out: MK2 IC50
From the text: Mitogen-Activated Protein Kinase-Activated Protein Kinase 2 Omnia® Assay for Compound Potency Assessment:
The protocol below describes a continuous-read kinase assay optimized to measure potency of compounds against p38α activated, mitogen-activated protein kinase-activated protein kinase 2 (MAPKAP-K2 or MK2) enzyme. Further details of this assay are described by Life Technologies, Carlsbad, Calif. on their website at the following URL: http://tools.lifetechnologies.com/content/sfs/manuals/omnia_kinase_assay_man.pdf.
[Reagent] used: • [MK-2]=0.4 nM, • [ATP]=10 μM and • [ST3-Sox]=10 μM (ATP^appKM=10 μM)
Kinase reactions were started with the addition of 45 μL of the ATP-peptide substrate S/T3-Sox mix and monitored every 71 seconds for 120 minutes at λex360/λem485 in a Synergy H4 plate reader from BioTek (Winooski, Vt.) at room temperature.
Background signals from the no enzyme control wells were subtracted from all progress curves. The initial linear portions of the net progress curves were fit according to a linear equation to yield the slope and percentage of inhibition (% inhibition) at each compound concentration. The net progress curves obtained during the first two hours of reactions were also fit according to an ascending single-exponential equation (Eq. 1) to yield kobs values at each compound concentration. Plots of % Inhibition versus inhibitor concentrations were fit according to a dose-response equation (Eq. 2) to generate IC50 and Hill slope values while plots of kobs versus inhibitor concentration were fit according to Equation 3 (Eq. 3) to generate apparent kinact/KI values using the GraphPad PRISM software (Version 6.00; GraphPad San Diego, Calif.).
[formula] where F is the fluorescence intensity from the plate reader, V0 is a constant reflecting the relationship between the instrument readout and product concentration, t is time, e is Euler's number, and kobs is the observed inactivation rate constant.
[formula] where % Inhibition is percentage of inhibition, IC50 is half maximal inhibitory concentration, [I] is the inhibitor concentration, and n is the Hill slope.

[2] = percentage of modified protein after 60 minutes at room temperature, 10-fold excess of compound, MALDI (I-1 to I-50), magnetic bead MALDI (I-51 to I-129)
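Wherever Mass Modification is given: covalent binding read from centroid mass shift of compound-treated versus untreated intact MK2, shift divided by compound molecular weight, giving fraction of total protein bound.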

MK2, sequence (P49137 whole entry): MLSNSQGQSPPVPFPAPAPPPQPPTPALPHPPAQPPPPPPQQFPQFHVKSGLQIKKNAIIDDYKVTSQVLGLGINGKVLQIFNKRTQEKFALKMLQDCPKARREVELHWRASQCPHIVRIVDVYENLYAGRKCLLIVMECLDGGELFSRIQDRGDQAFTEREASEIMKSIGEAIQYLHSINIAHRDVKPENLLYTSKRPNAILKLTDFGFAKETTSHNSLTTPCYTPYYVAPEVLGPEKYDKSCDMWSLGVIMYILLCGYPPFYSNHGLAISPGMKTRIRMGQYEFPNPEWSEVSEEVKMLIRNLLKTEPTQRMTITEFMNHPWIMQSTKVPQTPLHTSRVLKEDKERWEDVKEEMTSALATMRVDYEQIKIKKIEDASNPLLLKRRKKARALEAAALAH
p38α activated, mitogen-activated protein kinase-activated protein kinase 2 (MAPKAP-K2 or MK2) enzyme, sequence (P49137 whole entry): as above

| pIC50 [1] | Compound | Mass Modification (MK2; [2]) | Mass Modification (MK2) |
| --- | --- | --- | --- |
|  | C[C@@H]1CNc2c(sc3ccc4nc(Nc5nc(F)cc(OCC6(C)COC6)n5)ccc4c23)C(=O)N1 [I-43, (R)-3-((4-fluoro-6-((3-methyloxetan-3-yl)methoxy)pyrimidin-2-yl)amino)-10-methyl-9,10,11,12-tetrahydro-8H-[1,4]diazepino[5′,6′:4,5]thieno[3,2-f]quinolin-8-one] | G (mass modification ≦30%) |  |
|  | C[C@@H]1CNc2c(sc3ccc4nc(Oc5nc(Cl)nc(N6CCC(F)(F)C6)n5)ccc4c23)C(=O)N1 [I-77, (R)-3-((4-chloro-6-(3,3-difluoropyrrolidin-1-yl)-1,3,5-triazin-2-yl)oxy)-10-methyl-9,10,11,12-tetrahydro-8H-[1,4]diazepino[5′,6′:4,5]thieno[3,2-f]quinolin-8-one] | E (mass modification of ≧70%) |  |
|  | C[C@@H]1CNc2c(sc3ccc4nc(Nc5cc(F)nc(O[C@H]6CCOC6)n5)ccc4c23)C(=O)N1 [I-40, (R)-3-((6-fluoro-2-(((S)-tetrahydrofuran-3-yl)oxy)pyrimidin-4-yl)amino)-10-methyl-9,10,11,12-tetrahydro-8H-[1,4]diazepino[5′,6′:4,5]thieno[3,2-f]quinolin-8-one] | G (mass modification ≦30%) |  |
|  | C[C@@H]1CNc2c(sc3ccc4nc(Nc5cc(F)nc(O[C@@H]6CCOC6)n5)ccc4c23)C(=O)N1 [I-41, (R)-3-((6-fluor-2-(((R)-tetrahydrofuran-3-yl)oxy)pyrimidin-4-yl)amino)-10-methyl-9,10,11,12-tetrahydro-8H-[1,4]diazepino[5′,6′:4,5]thieno[3,2-f]quinolin-8-one] | G (mass modification ≦30%) |  |
|  | C[C@@H]1CNc2c(sc3ccc4nc(Nc5cc(F)nc(OCCN(C)C)n5)ccc4c23)C(=O)N1 [I-32, (R)-3-((2-(2-(dimethylamino)ethoxy)-6-fluoropyrimidin-4-yl)amino)-10-methyl-9,10,11,12-tetrahydro-8H-[1,4]diazepino[5′,6′:4,5]thieno[3,2-f]quinolin-8-one] | F (mass modification of 31-69%) |  |
| 6.30 to 7.00 | C[C@@H]1CNc2c(sc3ccc4nc(Oc5nc(Cl)nc6c5CCCC6)ccc4c23)C(=O)N1 [I-109, (R)-3-((2-chloro-5,6,7,8-tetrahydroquinazolin-4-yl)oxy)-10-methyl-9,10,11,12-tetrahydro-8H-[1,4]diazepino[5′,6′:4,5]thieno[3,2-f]quinolin-8-one] |  |  |
|  | C[C@@H]1CNc2c(sc3ccc4nc(Nc5cc(F)nc(F)c5)ccc4c23)C(=O)N1 [I-6, (R)-3-((2,6-difluoropyridin-4-yl)amino)-10-methyl-9,10,11,12-tetrahydro-8H-[1,4]diazepino[5′,6′:4,5]thieno[3,2-f]quinolin-8-one] | G (mass modification ≦30%) |  |
| > 7.00 | COCCOc1cc(Cl)nc(Nc2ccc3c(ccc4sc5c(c43)NC[C@@H](C)NC5=O)n2)n1 [I-69, (R)-3-((4-chloro-6-(2-methoxyethoxy)pyrimidin-2-yl)amino)-10-methyl-9,10,11,12-tetrahydro-8H-[1,4]diazepino[5′,6′:4,5]thieno[3,2-f]quinolin-8-one] | G (mass modification ≦30%) |  |
| > 7.00 | CCOC(=O)c1cnc(Nc2ccc3c(ccc4sc5c(c43)NC[C@@H](C)NC5=O)n2)nc1Cl [I-23, (R)-ethyl 4-chloro-2-((10-methyl-8-oxo-9,10,11,12-tetrahydro-8H-[1, 4]diazepino[5′,6′:4,5]thieno[3,2-f]quinolin-3-yl)amino)pyrimidine-5-carboxylate] | G (mass modification ≦30%) |  |
|  | C[C@@H]1CNc2c(sc3ccc4nc(Nc5cc(F)nc(OCC6(C)COC6)n5)ccc4c23)C(=O)N1 [I-39, (R)-3-((6-fluoro-2-((3-methyloxetan-3-yl)methoxy)pyrimidin-4-yl)amino)-10-methyl-9,10,11,12-tetrahydro-8H-[1,4]diazepino[5′,6′:4,5]thieno[3,2-f]quinolin-8-one] | G (mass modification ≦30%) |  |
|  | C[C@@H]1CNc2c(sc3ccc4nc(Nc5nc(F)cc(O[C@@H]6CCOC6)n5)ccc4c23)C(=O)N1 [I-46, (R)-3-((4-fluoro-6-(((R)-tetrahydrofuran-3-yl)oxy)pyrimidin-2-yl)amino)-10-methyl-9,10,11,12-tetrahydro-8H-[1,4]diazepino[5′,6′:4,5]thieno[3,2-f]quinolin-8-one] | F (mass modification of 31-69%) |  |
|  | C[C@@H]1CNc2c(sc3ccc4nc(Nc5nc(F)cc(O[C@H]6CCOC6)n5)ccc4c23)C(=O)N1 [I-50, (R)-3-((4-fluoro-6-(((S)-tetrahydrofuran-3-yl)oxy)pyrimidin-2-yl)amino)-10-methyl-9,10,11,12-tetrahydro-8H-[1,4]diazepino[5′,6′:4,5]thieno[3,2-f]quinolin-8-one] | F (mass modification of 31-69%) |  |
|  | C[C@@H]1CNc2c(sc3ccc4nc(Oc5nc(Cl)nc(N6CCCC(F)(F)C6)n5)ccc4c23)C(=O)N1 [I-78, (R)-3-((4-chloro-6-(3,3-difluoropiperidin-1-yl)-1,3,5-triazin-2-yl)oxy)-10-methyl-9,10,11,12-tetrahydro-8H-[1,4]diazepino[5′,6′:4,5]thieno[3,2-f]quinolin-8-one] | E (mass modification of ≧70%) |  |
| < 6.00 | CC(C)CN(Cc1cnc(Cl)nc1Oc1ccc2c(ccc3sc4c(c32)NC[C@@H](C)NC4=O)n1)CC(C)C [I-88, (R)-3-((2-chloro-5-((diisobutylamino)methyl)pyrimidin-4-yl)oxy)-10-methyl-9,10,11,12-tetrahydro-8H-[1,4]diazepino[5′,6′:4,5]thieno[3,2-f]quinolin-8-one] | F (mass modification of 31-69%) |  |
|  | C[C@@H]1CNc2c(sc3ccc4nc(Oc5nc(Cl)ncc5CNC(C)(C)C)ccc4c23)C(=O)N1 [I-102, (R)-3-((5-((tert-butylamino)methyl)-2-chloropyrimidin-4-yl)oxy)-10-methyl-9,10,11,12-tetrahydro-8H-[1,4]diazepino[5′,6′:4,5]thieno[3,2-f]quinolin-8-one] | E (mass modification of ≧70%) |  |
|  | C[C@@H]1CNc2c(sc3ccc4nc(Nc5nc(Cl)ncc5C(=O)NC5CCN(C)CC5)ccc4c23)C(=O)N1 [I-19, (R)-2-chloro-4-((10-methyl-8-oxo-9,10,11,12-tetrahydro-8H-[1,4]diazepino-[5′,6′:4,5]thieno[3,2-f]quinolin-3-yl)amino)-N-(1-methylpiperidin-4-yl)pyrimidine-5-carboxamide] |  | G (key: E: mass modification of ≧70%; F: mass modification of 31-69%; G: mass modification ≦30%) |
|  | C[C@@H]1CNc2c(sc3ccc4nc(Nc5cc(F)nc(OC6COC6)n5)ccc4c23)C(=O)N1 [I-37, (R)-3-((6-fluoro-2-(oxetan-3-yloxy)pyrimidin-4-yl)amino)-10-methyl-9,10,11,12-tetrahydro-8H-[1,4]diazepino[5′,6′:4,5]thieno[3,2-f]quinolin-8-one] | F (mass modification of 31-69%) |  |
|  | C[C@@H]1CNc2c(sc3ccc4nc(Nc5cc(F)nc(O[C@@H]6CCN(C)C6)n5)ccc4c23)C(=O)N1 [I-49, (R)-3-((6-fluor-2-(((R)-1-methylpyrrolidin-3-yl)oxy)pyrimidin-4-yl)amino)-10-methyl-9,10,11,12-tetrahydro-8H-[1,4]diazepino[5′,6′:4,5]thieno[3,2-f]quinolin-8-one] | G (mass modification ≦30%) |  |

| Compound | pIC50 [1] | Mass Modification (MK2; [2]) | Mass Modification (MK2) |
| --- | --- | --- | --- |
| CCOC(=O)c1cnc(SC)nc1Nc1ccc2c(ccc3sc4c(c32)NC[C@@H](C)NC4=O)n1 [I-12, (R)-ethyl 4-((10-methyl-8-oxo-9,10,11,12-tetrahydro-8H-[1,4]diazepino[5′,6′:4,5]thieno[3,2-f]quinolin-3-yl)amino)-2-(methylthio)pyrimidine-5-carboxylate] | 6.00 to 6.30 |  | G (key: E: mass modification of ≧70%; F: mass modification of 31-69%; G: mass modification ≦30%) |
